Patent US7307097B2, “Chemical compounds” (SmithKline Beechman Corporation, priority 2001, dated 2007)

Target: Recombinant GST-Tie2 (Homo sapiens, UniProt Q02763)
Experiment: Tie2 fluorescence polarization kinase activity assay (TIE2-FP)
Format: biochemical
Conditions: 200 μM ATP, activated enzyme; read-out: TIE2-FP pIC50 (converted)
Experimental: Tie2 Fluorescence Polarization Kinase Activity Assay (TIE2-FP) Activation of Recombinant Tie2 Activation: Recombinant GST-Tie2 is activated by incubating the enzyme in 20 mM Tris-HCl, pH7.5, 12 mM MgCl2, 100 mM NaCl, 20 μM sodium vanidate, 1 mM DTT and 300 μM ATP at room temperature for 2 hours. The activation mixture is then passed through a NAP-25 desalting column (Pharmacia Biotech cat. no. 17-0852-02) to remove the free ATP. The activated enzyme is stored as aliquots at−80° C. in 20mM Tris-HCl, pH7.5 and 100 mM NaCl. Assay Conditions: The final assay conditions are 50 mM HEPES, pH7.5, 5% DMSO (when screening compounds), 200 μM ATP, 5mM MgCl2, 1 mM DTT, 50 μM sodium vanidate, 1 nM activated enzyme, and 200 μM peptide. IC50's of compounds are measured under subsaturating ATP (200 μM) and varing concentrations of activated Tie2 and peptide substrate (RFWKYEFWR-OH; MW 1873 Da, TFA salt). Panvera Anti-phosphotyrosine antibody (Cat#P2840) and PTK Green Tracer (Cat#P2842) are used to detect the phosphorylated peptide. Polarization is measured on a TECAN Polarion in 138-second cycles for 30 minutes at room temperature. IC50's are then determined from the % polarization using normal calculation methods. The IC50 values are converted to pIC50 values, i.e.,−log IC50 in Molar concentration.

Sequence of Recombinant GST-Tie2 (Q02763 23-1124): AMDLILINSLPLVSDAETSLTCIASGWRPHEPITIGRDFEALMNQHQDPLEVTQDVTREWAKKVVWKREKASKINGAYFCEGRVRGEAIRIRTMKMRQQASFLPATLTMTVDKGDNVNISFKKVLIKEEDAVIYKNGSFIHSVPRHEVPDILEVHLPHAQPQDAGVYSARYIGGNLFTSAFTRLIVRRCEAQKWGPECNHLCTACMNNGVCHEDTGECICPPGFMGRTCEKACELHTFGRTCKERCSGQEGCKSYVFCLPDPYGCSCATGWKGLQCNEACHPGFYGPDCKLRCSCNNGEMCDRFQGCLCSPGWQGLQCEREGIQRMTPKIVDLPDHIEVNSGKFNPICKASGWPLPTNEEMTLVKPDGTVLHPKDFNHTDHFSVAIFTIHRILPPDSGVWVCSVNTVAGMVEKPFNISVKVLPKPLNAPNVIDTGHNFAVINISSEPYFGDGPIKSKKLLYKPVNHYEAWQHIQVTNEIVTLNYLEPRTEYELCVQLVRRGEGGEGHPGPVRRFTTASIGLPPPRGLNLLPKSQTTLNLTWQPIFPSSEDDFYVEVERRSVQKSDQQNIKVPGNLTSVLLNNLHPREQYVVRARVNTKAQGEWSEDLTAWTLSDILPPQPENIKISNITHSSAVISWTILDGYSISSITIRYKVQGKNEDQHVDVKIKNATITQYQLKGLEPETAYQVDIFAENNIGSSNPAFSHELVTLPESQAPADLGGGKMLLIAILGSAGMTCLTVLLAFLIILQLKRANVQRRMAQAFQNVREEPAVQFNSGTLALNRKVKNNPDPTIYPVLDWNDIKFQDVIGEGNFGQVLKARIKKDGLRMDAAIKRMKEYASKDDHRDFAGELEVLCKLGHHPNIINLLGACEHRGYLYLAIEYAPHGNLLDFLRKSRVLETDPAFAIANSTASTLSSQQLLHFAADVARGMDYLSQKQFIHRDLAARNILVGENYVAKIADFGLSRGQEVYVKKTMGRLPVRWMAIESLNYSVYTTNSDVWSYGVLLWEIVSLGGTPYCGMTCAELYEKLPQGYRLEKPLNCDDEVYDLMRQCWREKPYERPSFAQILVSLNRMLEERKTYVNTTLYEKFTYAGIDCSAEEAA

IC50 [µM]	Structure (SMILES)
1 to 10	COc1ccc(NC(=O)Nc2ccc(-c3nn(C)c(N)c3C(N)=O)cc2)c(OC)c1 [Example 16, 5-amino-3-{4-[3-(2,4-dimethoxy-phenyl)-ureido]-phenyl}-1-methyl-1H-pyrazole-4-carboxylic acid amide]
0.1 to 1	Cn1nc(-c2ccc(NC(=O)Nc3ccc(Oc4ccccc4)cc3)cc2)c(C(N)=O)c1N [Example 17, 5-Amino-1-methyl-3-{4-[3-(4phenoxy-phenyl)-ureido]-phenyl}-1H-pyrazole-4-carboxylic acid amide]
< 0.1	CC(C)(C)n1nc(-c2ccc(NC(=O)Nc3cc(C(F)(F)F)ccc3Cl)cc2)c(C(N)=O)c1N [Example 18, 5-Amino-1-tert-butyl-3-{4-[3-(2-chloro-5-trifluoromethyl-phenyl)-ureido]-phenyl}-1H-pyrazole-4-carboxylic acid amide]
< 0.1	CC(C)(C)n1nc(-c2ccc(NC(=O)Nc3cc(C(F)(F)F)cc(C(F)(F)F)c3)cc2)c(C(N)=O)c1N [Example 19, 5-Amino-3-{4-[3-(bis-3,5-trifluoromethyl-phenyl)-ureido]-phenyl}-1-tert-butyl-1H-pyrazole-4-carboxylic acid amide]
0.1 to 1	CC(C)(C)n1nc(-c2ccc(NC(=O)Nc3cccc4ccccc34)cc2)c(C(N)=O)c1N [Example 20, 5-Amino-1-tert-butyl-3-[4-(3-naphthalen-1-yl-ureido)-phenyl]-1H-pyrazole-4-carboxylic acid amide]
< 0.1	CC(C)(C)n1nc(-c2ccc(NC(=O)Nc3cccc(Cl)c3)cc2)c(C(N)=O)c1N [Example 21, 5-Amino-1-tert-butyl-3-{4-[3-(3-chloro-phenyl)-ureido]-phenyl}-1H-pyrazole-4-carboxylic acid amide]
0.1 to 1	CC(C)(C)n1nc(-c2ccc(NC(=O)Nc3cc(Cl)ccc3Cl)cc2)c(C(N)=O)c1N [Example 22, 5-Amino-1-tert-butyl-3-{4-[3-(2,5-dichloro-phenyl)-ureido]-phenyl}-1H-pyrazole-4-carboxylic acid amide]
< 0.1	CC(C)(C)n1nc(-c2ccc(NC(=O)Nc3ccc4ccccc4c3)cc2)c(C(N)=O)c1N [Example 23, 5-Amino-1-tert-butyl-3-[4-(3-naphthalen-2-yl-ureido)-phenyl]-1H-pyrazole-4-carboxylic acid amide]
< 0.1	CC(C)(C)n1nc(-c2ccc(NC(=O)Nc3cccc(C(F)(F)F)c3)cc2)c(C(N)=O)c1N [Example 24, 5-Amino-1-tert-butyl-3-{4-[3-(3-trifluoromethyl-phenyl)-ureido]-phenyl}-1H-pyrazole-4-carboxylic acid amide]
0.1 to 1	CC(C)(C)n1nc(-c2ccc(NC(=O)Nc3ccc(-c4ccccc4)cc3)cc2)c(C(N)=O)c1N [Example 25, 5-Amino-3-[4-(3-biphenyl-4-yl-ureido)-phenyl]-1-tert-butyl-1H-pyrazole-4-carboxylic acid amide]
1 to 10	CC(C)(C)n1nc(-c2ccc(NC(=O)Nc3c(F)cccc3F)cc2)c(C(N)=O)c1N [Example 26, 5-Amino-1-tert-butyl-3-{4-[3-(2,6-difluoro-phenyl)-ureido]-phenyl}-1H-pyrazole-4-carboxylic acid amide]
0.1 to 1	CC(C)(C)n1nc(-c2ccc(NC(=O)Nc3ccc4c(c3)OCO4)cc2)c(C(N)=O)c1N [Example 27, 5-Amino-3-[4-(3-benzo[1,3]dioxol-5-yl-ureido)-phenyl]-1-tert-butyl-1H-pyrazole-4-carboxylic acid amide]
< 0.1	Cc1cccc(NC(=O)Nc2ccc(-c3nn(C(C)(C)C)c(N)c3C(N)=O)cc2)c1 [Example 29, 5-Amino-1-tert-butyl-3-[4-(3-m-tolyl-ureido)-phenyl]-1H-pyrazole-4-carboxylic acid amide]
0.1 to 1	CC(C)(C)n1nc(-c2ccc(NC(=O)Nc3cc(F)ccc3F)cc2)c(C(N)=O)c1N [Example 30, 5-Amino-1-tert-butyl-3-{4-[3-(2,5-difluoro-phenyl)-ureido]-phenyl}-1H-pyrazole-4-carboxylic acid amide]
1 to 10	COc1ccc(NC(=O)Nc2ccc(-c3nn(C(C)(C)C)c(N)c3C(N)=O)cc2)c(OC)c1 [Example 31, 5-Amino-1-tert-butyl-3-{4-[3-(2,4-dimethoxyo-phenyl)-ureido]-phenyl}-1H-pyrazole-4-carboxylic acid amide]
0.1 to 1	CC(C)(C)n1nc(-c2ccc(NC(=O)Nc3ccc(Oc4ccccc4)cc3)cc2)c(C(N)=O)c1N [Example 32, 5-Amino-1-tert-butyl-3-{4-[3-(4-phenoxy-phenyl)-ureido]-phenyl}-1H-pyrazole-4-carboxylic acid amide]
< 0.1	NC(=O)c1c(-c2ccc(NC(=O)Nc3cc(C(F)(F)F)ccc3F)cc2)n[nH]c1N [Example 33, 5-Amino-3-{4-[3-2-(fluoro-5-trifluoromethyl-phenyl)-ureido]-phenyl}-1H-pyrazole-4-carboxylic acid amide]

The remaining lines, values behind:

Structure (SMILES)	IC50 [µM]
Cn1nc(-c2ccc(NC(=O)Nc3cc(C(F)(F)F)ccc3F)cc2)c(C(N)=O)c1N [Example 2, 5-Amino-3-{4-[3-(2-fluoro-5-trifluoromethyl-phenyl)-ureido]-phenyl}-1-methyl-1H-pyrazole-4-carboxylic acid amide]	< 0.1
Cn1nc(-c2ccc(NC(=O)Nc3cc(C(F)(F)F)ccc3Cl)cc2)c(C(N)=O)c1N [Example 3, 5-Amino-3-{4-[3-(2-chloro-5-trifluoromethyl-phenyl)-ureido]-phenyl}-1-methyl-1H-pyrazole-4-carboxylic acid amide]	< 0.1
Cn1nc(-c2ccc(NC(=O)Nc3cc(C(F)(F)F)cc(C(F)(F)F)c3)cc2)c(C(N)=O)c1N [Example 4, 5-Amino-3-{4-[3-(bis-3,5-trifluoromethyl-phenyl)-ureido]-phenyl}-1-methyl-1H-pyrazole-4-carboxylic acid amide]	0.1 to 1
Cn1nc(-c2ccc(NC(=O)Nc3ccc4ccccc4c3)cc2)c(C(N)=O)c1N [Example 5, 5-Amino-1-methyl-3-[4-(3-naphthalen-2-yl-ureido)-phenyl]-1H-pyrazole-4-carboxylic acid amide]	0.1 to 1
Cn1nc(-c2ccc(NC(=O)Nc3cccc(Cl)c3)cc2)c(C(N)=O)c1N [Example 6, 5-Amino-3-{4-[3-(3-chloro-phenyl)-ureido]-phenyl}-1-methyl-1H-pyrazole-4-carboxylic acid amide]	1 to 10
Cn1nc(-c2ccc(NC(=O)Nc3cc(Cl)ccc3Cl)cc2)c(C(N)=O)c1N [Example 7, 5-Amino-3-{4-[3-(2,5-dichloro-phenyl)-ureido]-phenyl}-1-methyl-1H-pyrazole-4-carboxylic acid amide]	< 0.1
Cn1nc(-c2ccc(NC(=O)Nc3cccc4ccccc34)cc2)c(C(N)=O)c1N [Example 8, 5-Amino-1-methyl-3-[4-(3-naphthalen-1-yl-ureido)-phenyl]-1H-pyrazole-4-carboxylic acid amide]	1 to 10
Cn1nc(-c2ccc(NC(=O)Nc3cccc(C(F)(F)F)c3)cc2)c(C(N)=O)c1N [Example 9, 5-Amino-1-methyl-3-{4-[3-(3-trifluoromethyl-phenyl)-ureido]-phenyl}-1H-pyrazole-4-carboxylic acid amide]	< 0.1
Cn1nc(-c2ccc(NC(=O)Nc3ccc(-c4ccccc4)cc3)cc2)c(C(N)=O)c1N [Example 10, 5-Amino-3-[4-(3-biphenyl4-yl-ureido)-phenyl]-1-methyl-1H-pyrazole-4-carboxylic acid amide]	0.1 to 1
Cn1nc(-c2ccc(NC(=O)Nc3c(F)cccc3F)cc2)c(C(N)=O)c1N [Example 11, 5-Amino-3-{4-[3-(2,6-difluoro-phenyl)-ureido]-phenyl}-1-methyl-1H-pyrazole-4-carboxylic acid amide]	> 10
Cn1nc(-c2ccc(NC(=O)Nc3ccc4c(c3)OCO4)cc2)c(C(N)=O)c1N [Example 12, 5-Amino-3-[4-(3-benzo[1,3]dioxol-5-yl-ureido)-phenyl]-1-methyl-1H-pyrazole-4-carboxylic acid amide]	1 to 10
Cc1ccccc1NC(=O)Nc1ccc(-c2nn(C)c(N)c2C(N)=O)cc1 [Example 13, 5-Amino-1-methyl-3-[4-(3-o-tolyl-ureido)-phenyl]-1H-pyrazole-4-carboxylic acid amide]	1 to 10
Cc1cccc(NC(=O)Nc2ccc(-c3nn(C)c(N)c3C(N)=O)cc2)c1 [Example 14, 5-Amino-1-methyl-3-[4-(3-m-tolyl-ureido)-phenyl]-1H-pyrazole-4-carboxylic acid amide]	0.1 to 1
Cn1nc(-c2ccc(NC(=O)Nc3cc(F)ccc3F)cc2)c(C(N)=O)c1N [Example 15, 5-Amino-3-{4-[3-(2,5-difluoro-phenyl)-ureido]-phenyl}-1-methyl-1H-pyrazole-4-carboxylic acid amide]	1 to 10
